Results from publication PMC8825254, “Rational design of Striga hermonthica-specific seed germination inhibitors” (Plant Physiology, 2021).

Assays:
ShHTL7 = biological target: T1, ShHTL7 (Striga hermonthica, UniProt A0A0M3PNA2); assay: DSF thermal stability of ShHTL7; format: binding; settings: 0 to 100 µM; result in words
T1 sequence (A0A0M3PNA2 1-271): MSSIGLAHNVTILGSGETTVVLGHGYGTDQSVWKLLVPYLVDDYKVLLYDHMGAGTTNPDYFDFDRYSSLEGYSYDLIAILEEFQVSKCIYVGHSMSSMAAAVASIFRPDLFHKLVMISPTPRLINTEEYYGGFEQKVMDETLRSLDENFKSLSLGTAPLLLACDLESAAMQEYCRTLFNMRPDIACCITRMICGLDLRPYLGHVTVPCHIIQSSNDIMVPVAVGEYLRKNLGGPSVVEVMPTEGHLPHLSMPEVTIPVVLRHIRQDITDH
Description: About 10 µM of ShHTL7 purified protein was incubated with various concentrations of KK023-N1, Triton X-100, or KK094 (ranging from 0 to 100 µM) for 30 min. Then SYPRO Orange (reporter dye) was added to 1× final concentration. The reactions were carried out in 25 µL 1× PBs buffer. The assay was performed on CFX96 Real-Time System (BIO-RAD, Hercules, CA, USA) thermal cycler on 96-well quantitative polymerase chain reaction (qPCR) white plate, and the plate was sealed with adhesive qPCR plate seal to prevent samples evaporation ([Bai et al., 2019]). First, samples were heated to 25°C for 1 min followed by linear increase in the temperature ramp from 25°C to 99°C at a rate of 0.5°C/15 s. The change in the protein folding was monitored by the changes in the fluorescence of the reporter dye, and the data were analyzed by the machine software that plots the inflection point of fluorescence against temperature. Data were exported into Excel, and replicates were averaged to generate the graph.

[1] = tested on: Rice seeds (cv Nipponbare); assay: Rice germination and seedling growth in response to inhibitors; format: in vivo, rice (Oryza sativa); settings: result in words
Description: Rice seeds (cv Nipponbare) were surface sterilized in 2.5% NaClO and 0.05% of Tween-20 for 10 min, and rinsed 6 times with sterilized MilliQ water. Seeds were imbibed in sterilized water at 30°C for 24 h in the dark. Next day, ∼3 mL of each inhibitor at different concentrations (3, 6, 12, 25, 50, and 100 μM) was added along with 0.5 Murashige and Skoog (MS) medium into 24-well plate, and one imbibed rice seed was placed in each well. The experiment was performed in six replications (one plant/well, n = 6) for each concentration. Nontreated rice seeds in 0.5-MS solution were included as a control. Seeds were allowed to germinate at 30°C in the dark for 48 h for monitoring seeds germination, and seeds were moved to a growth chamber with white fluorescent light (130–180 μM m^−2 s^−1) and12 h:12 h (Light/Dark (L/D)) period at 28°C. After 1 week, length of rice seedlings was measured and recorded, and pictures of seedlings were taken.

## COc1ccc(CCCc2cccc3c2CCN3C(=O)n2ccnn2)cc1 [KK023-N1]
ShHTL7
  Effect on SYPRO orange fluorescence peak of ShHTL7: decreased the fluorescence of the SYPRO orange
  Effect on melting temperature of ShHTL7: did not affect the melting temperature
[1]; all treatments (3-100 µM), 1 week
  Effect on rice seedling plant height: no effect on plant height was observed
[1]; up to 100 µM
  Effect on rice seed germination: did not detect any effect on seed germination
  Phenotype of treated rice seedlings versus control: did not show any significant phenotypic difference
